Experimental data reported in patent US20240390293A1, “DERIVATIVES OF THE PROTECTIN 10S,17S-DIHDA (PDX) AND USE THEREOF AS ANTIVIRAL, ANTI-INFLAMMATORY, AND ANTI-DIABETIC AGENTS” (priority 2021, published 2024).
Read-outs that look alike come from different tables or passages of the source.

Assays:
[1] = tested on: influenza A/Puerto Rico/8/34 (H1N1); format: cell-based; settings: A549 cells, 24 hours
[2] = tested on: interleukin-6 (IL-6) release; settings: skeletal muscle cells; PDX at submicromolar concentrations; cited from earlier work
SARS-CoV-2 [3] = test: Plaque Reduction Assay (PRA) of SARS-CoV-2 replication on VERO E6 cells; format: cell-based
iNOS = test: LPS-induced iNOS activity (nitrite production, Griess method) in J774 macrophages; format: cell-based, mice; settings: for IC50: Mus musculus; for nitrite production in LPS-induced J774 mice macrophages: LPS 2.5 ng/ml, 18 h, dose-dependent
Procedure: J774A.1 macrophages are grown in DMEM, supplemented with 10% Bovine Growth Serum (BGS) and 1% penicillin-streptomycin (PS). The J774A.1 macrophages are subsequently stimulated with LPS 2.5 ng/ml in DMEM supplemented with 10% BGS and 1% PS for 16 h-18 h. […] After incubation, the level of inflammation is evaluated by measuring the nitrite content in the medium by using the Griess method and normalized by protein concentration.

SARS-CoV-2 [4] = test: SARS-CoV-2 infected hamsters: viral titers and weight variation; format: in vivo, Golden Syrian hamsters
Procedure: Animal Studies. 5-6 Week-old Golden Syrian hamsters were infected with 4.5 log PFU of original SARS-CoV-2 strain. On days 1, 2 and 3, or 1 to 5 post-infection, the animals were treated intraperitoneally with either Remdesivir (15 mg/kg), analog RM-598-48 (50 mg/kg), Remdesivir (15 mg/kg)+analog RM-598-48 (50 mg/kg), analog RM-598-44 (50 mg/kg), or with vehicle only (FIG. 28). The hamsters were monitored daily over a period of 14 days for clinical symptoms and weight loss. On day 4 post-infection, nasal turbinates and lungs were harvested to assess viral replication. All animal studies were approved by the Animal Protection Committee of the Centre Hospitalier Universitaire de Québec according to the Canadian Council on Animal Care guidelines.
Viral titers. Viral titers were determined in cell culture to characterize the presence of live virus. Ten-fold dilutions of nasal turbinates and lung homogenates were performed in infection medium. After one week of infection, titers were determined and reported in TCID50 per gram of organ.

[5] = LPS-stimulated J774 macrophages, nitrite by Griess method, read-out: Anti-inflammatory Activity on iNOS IC50
[6] = Severe acute respiratory syndrome coronavirus 2, Vero C1008, VERO E6 cells, plaque reduction assay, read-out: SARS-COV-2 Inhibition IC50
[7] = 50 mg/kg IP from day 1 until day 5 post-infection
[8] = Severe acute respiratory syndrome coronavirus 2, Vero C1008, read-out: SARS-COV-2 Inhibition (%)

O=C1c2c(O)c(=O)ccn2N([C@@H]2c3ccccc3SCc3c2ccc(F)c3F)[C@@H]2COCCN12 [BXA, Baloxavir acid]
decrease in the viral charge ([1]; 5 μM): 88%

CC/C=C\C[C@H](O)\C=C/C=C/C=C/[C@H](O)C/C=C\C/C=C\CCC(=O)O [PD1, protectin D1]
release of interleukin-6 (IL-6) [2]: ineffective | decrease in the viral charge ([1]; 50 μM): 10%

CC/C=C\C[C@H](O)/C=C/C=C\C=C\[C@@H](O)C/C=C\C/C=C\CCC(=O)O [PDX, 10S, 17S-diHDA, reference compound]
inhibition at 5 µM (SARS-CoV-2 [3]; Severe acute respiratory syndrome coronavirus 2, Vero C1008, 5 μM, VERO E6 cells, plaque reduction assay, read-out: SARS-COV-2 Inhibition (%)): 0% | inhibition at 50 µM (SARS-CoV-2 [3]; Severe acute respiratory syndrome coronavirus 2, Vero C1008, 50 μM, VERO E6 cells, plaque reduction assay, read-out: SARS-COV-2 Inhibition (%)): 18% | IC50 (iNOS; [5]): 96 µM | release of interleukin-6 (IL-6) [2]: induce the release

CC/C=C\C[C@H](O)/C=C/C=C\C=C\[C@@H](O)CCOc1ccc(C)cc1 [PDX-1]
nitrite production in LPS-induced J774 mice macrophages (iNOS): reduced nitrite production | IC50 (iNOS; [5]): 11 µM

CC/C=C\C[C@H](O)/C=C/C=C\C=C\[C@@H](O)CCOc1ccc(CC(=O)OC)cc1 [PDX-2]
IC50 (SARS-CoV-2 [3]; [6]): 33 µM | nitrite production in LPS-induced J774 mice macrophages (iNOS): reduced nitrite production | IC50 (iNOS; [5]): 64 µM | weight loss (weight variation, % of initial weight) (SARS-CoV-2 [4]; [7]): significantly limit weight loss | weight loss (weight variation, % of initial weight) (SARS-CoV-2 [4]; 50 mg/kg IP on days 1, 2 and 3 post-infection, significant at days 3, 9, 11, 12 and 14): significantly limit weight loss | viral loads in nasal turbinates (SARS-CoV-2 [4]; 50 mg/kg IP on days 1, 2 and 3 post-infection, titers on day 4, vs untreated hamsters): significantly different from the untreated hamsters

CC/C=C\C[C@H](O)/C=C/C=C\C=C\[C@@H](O)CCNCCCCCC [PDX-6]
IC50 (SARS-CoV-2 [3]; [6]): 29 µM | nitrite production in LPS-induced J774 mice macrophages (iNOS): reduced nitrite production | IC50 (iNOS; [5]): 50 µM

CC/C=C\C[C@H](O)/C=C/C=C\C=C\[C@@H](O)CCN1CCCCC1 [PDX-7]
nitrite production in LPS-induced J774 mice macrophages (iNOS): reduced nitrite production

CC/C=C\C[C@H](O)/C=C/C=C/C=C/[C@@H](O)CCN1CCCCC1 [PDX-10]
IC50 (SARS-CoV-2 [3]; [6]): 56 µM | nitrite production in LPS-induced J774 mice macrophages (iNOS): reduced nitrite production | IC50 (iNOS; [5]): 32 µM

CC/C=C\C[C@H](O)/C=C/C=C\C=C\[C@@H](O)CCOc1ccc(C(=O)OC)cc1 [PDX-16]
nitrite production in LPS-induced J774 mice macrophages (iNOS): reduced nitrite production

CC/C=C\C[C@H](O)/C=C/C=C\C=C\[C@@H](O)CCOc1ccncc1 [PDX-17]
nitrite production in LPS-induced J774 mice macrophages (iNOS): reduced nitrite production

CC/C=C\C[C@H](O)/C=C/C=C\C=C\[C@@H](O)CCOc1ccc2ccc(=O)oc2c1 [PDX-18]
nitrite production in LPS-induced J774 mice macrophages (iNOS): reduced nitrite production

CC/C=C\C[C@H](O)/C=C/C=C\C=C\[C@@H](O)CCOc1ccc(C(=O)O)cc1 [PDX-19]
nitrite production in LPS-induced J774 mice macrophages (iNOS): reduced nitrite production

CC/C=C\C[C@H](O)/C=C/C=C\C=C\[C@@H](O)CCNCCC [PDX-20]
nitrite production in LPS-induced J774 mice macrophages (iNOS): reduced nitrite production

CC/C=C\C[C@H](O)/C=C/C=C\C=C\[C@@H](O)CCOc1cccc(CC(=O)O)c1 [PDX-21]
nitrite production in LPS-induced J774 mice macrophages (iNOS): reduced nitrite production

CC/C=C\C[C@H](O)/C=C/C=C\C=C\[C@@H](O)CCOc1cccc(CC(=O)OC)c1 [PDX-22]
nitrite production in LPS-induced J774 mice macrophages (iNOS): reduced nitrite production

CC/C=C\C[C@H](O)/C=C/C=C\C=C\[C@@H](O)CCOc1ccc(CC(=O)NC)cc1 [PDX-23]
nitrite production in LPS-induced J774 mice macrophages (iNOS): reduced nitrite production

CC/C=C\C[C@H](O)/C=C/C=C\C=C\[C@@H](O)CCOc1ccc(CC(N)=O)cc1 [PDX-24]
nitrite production in LPS-induced J774 mice macrophages (iNOS): reduced nitrite production | decrease in the viral charge ([1]; 50 μM): 39%

CC/C=C\C[C@H](O)C#C/C=C\C#C[C@@H](O)CCO [PDX-Al-1]
inhibition at 5 µM (SARS-CoV-2 [3]; [8]): 40% | inhibition at 50 µM (SARS-CoV-2 [3]; [8]): 30% | nitrite production in LPS-induced J774 mice macrophages (iNOS): reduced nitrite production | IC50 (iNOS; J774, read-out: Anti-inflammatory Activity on iNOS IC50): 18 µM | weight loss (weight variation, % of initial weight) (SARS-CoV-2 [4]; [7]): tendency to limit weight loss, but not in a significant manner

O=c1c(O)c(-c2ccc(O)c(O)c2)oc2cc(O)cc(O)c12 [Quercetin, reference compound]
nitrite production in LPS-induced J774 mice macrophages (iNOS): reduced nitrite production

CCC(CC)COC(=O)[C@H](C)N[P@](=O)(OC[C@H]1O[C@@](C#N)(c2ccc3c(N)ncnn23)[C@H](O)[C@@H]1O)Oc1ccccc1 [Remdesivir, reference compound]
IC50 (SARS-CoV-2 [3]; Severe acute respiratory syndrome coronavirus 2, Vero C1008, read-out: SARS-COV-2 Inhibition IC50): 3.9 µM
